Measured values published in patent US20030139609A1, “Aziridinyl quinone antitumor agents based on indoles and cyclopent[b]indoles” (priority 2001, published 2003).
“And” between values parts separate entries of the source, which are not always exact repeats. Equal entries are not always repeated.

How the values were obtained:
[1] = test system: 600 bp calf thymus DNA; assay: DNA reductive alkylation by catalytically reduced aziridinyl quinones; type: biochemical; conditions: for DNA alkylation percentage: catalytic reduction, anaerobic, pH 7.4 tris buffer, 30° C., 24 h, absorbance at 550 nm
Experimental: DNA Alkylation Screening of Series 1-9. The extent of DNA reductive alkylation was determined by catalytic reduction of the aziridinyl quinones in the presence of 600 bp calf thymus DNA. Oxidative workup afforded DNA colored blue as a result of the aminoquinone chromophore. […] The anaerobic conditions employed for DNA reductive alkylation assays is not meant to mimic the environment of tumor cells. These conditions do permit an accurate assessment of the structural requirements for DNA alkylation by the hydroquinone species. To be sure, agents incapable of akylating DNA under these ideal conditions will not do so in the typical cellular environment.
Alkylation of DNA by Reduced Indoloquinones. To a mixture of 1-2 mg of sonicated (600 bp) calf thymus DNA in 2.0 mL of 0.05 M of pH 7.4 tris buffer and 2 mg of Pd on carbon was added a five-to-one base pair equivalent amount of the indoloquinone dissolved in 0.5 mL of dimethylsulfoxide. The resulting solution was degassed under argon for 30 min., after which the mixture was purged with H2 for 10 min. The solution was then purged with argon for 10 min. and placed in a 30° C. bath for 24 h. The reaction was opened to the air and the catalyst was removed with a Millex-PF […] syringe filter. The filtrate was adjusted to 0.3 M acetate with a 3 M stock solution of pH 5.1 acetate and then diluted with two volumes of ethanol. The mixture was chilled at −20° C. for 12 h and the DNA pellet collected by centrifuging at 12,000 g for 20 min. The pellet was redissolved in water and then precipitated and centrifuged again. The resulting blue or red pellet was suspended in ethanol, centrifuged, and dried. The dried pellet was weighed and dissolved in 1 mL of double distilled water resulting in a clear colored solution with […]max˜550 nm, □˜750 M^−1 cm^−1. This is the chromophore of the aminoquinone resulting from nucleophile-mediated opening of the aziridine ring. Model 2′-chloroethyl aminoquinones for extinction coefficient determination were prepared by treatment of the indoloquinone with HCl. {Skibo, E. B. and Xing, C., Chemistry and DNA Alkylation Reactions of Aziridinyl Quinones: Development of an Efficient Alkylating Agent of the Phosphate Backbone, Biochemistry, 1998, 37, 15199-15213}.

[2] = test system: NCI-H460 non-small-lung cancer cell line; assay: NCI In Vitro Cell Line Screening, NSC H460 cell line; type: cell-based; conditions: for GI50 / CC50: Homo sapiens; for GI50: NCI-H460, concentration for 50% growth inhibition, read-out: Log GI50 NSC H460 (converted); for CC50: NCI-H460, read-out: Log LC50 NSC H460, concentration for 50% cell kill (converted); for Log TGI NSC H460: concentration for total growth inhibition; for Log GI50 NSC H460: concentration for 50% growth inhibition
From the text: Cytotoxic and Cytostatic Screening of Series 1-9.

[3] = test system: National Cancer Institute 60-cell line; assay: NCI 60-cell line in vitro screen (average cytotoxicity and cancer specificity); conditions: for Average Log LC50 60-Cell Line: mean over 60 cell lines, ± value measures cancer specificity
Experimental: Cytotoxic and Cytostatic Screening of Series 1-9. […] The cytostatic parameters include GI50 and TGI, which are the concentrations of drug required for 50% growth inhibition and total growth inhibition, respectively. The cytotoxic parameter is the LC50, which is the concentration required for 50% cell kill.
4. […] Cancer specificity is measured from the ± value under the “Average Log LC50 60-Cell Line” heading of Table 5. A ± value greater than 2 indicates a greater than 100-fold higher/lower cytotoxicity in some histological cancer types compared to the mean cytotoxicity.
The DT-diaphorase levels in the National Cancer Institute 60-cell line in vitro screen have been determined and correlated with the cytotoxicity of antitumor agents activated by 2-electron reduction. {Fitzsimmons, S. A., Workman, P., Grever, M., Paull, K., Camalier, R., and Lewis, A. D., Reductase Enzyme Expression Across the National Cancer Institute Tumor Cell Line Panel: Correlation with Sensitivity To Mitomycin C and EO9, J. Natl. Cancer Inst., 1996, 88, 259-69}. Sensitive cancers usually include NSC lung and colon cancers (and to a lesser extent CNS, melanoma, and renal cancers) by virtue of their elevated DT-diaphorase levels.

[4] = test system: B16 melanoma; assay: animal or person; type: in vivo; conditions: for In vivo T/C (Treated/Control) / response vs control in vivo at 2 mg/kg: T/C at day 25, <40% active; for response vs control in vivo at 2 mg/kg: Mus musculus, B16, 600 h, read-out: In vivo T/C (Treated/Control)
From the text: Shown in Tables 6 and 7 are B16 melanoma syngraft assays {Griswold, D. P., Consideration of the Subcutaneously Implanted B16 Melanoma as a Screening Model for Potential Anticancer Agents, Cancer Chemother Reports, 1972, 3, 315-324} of some members of Series 1-9, as well as related compounds previously reported from this laboratory. {Xing, C. G., Wu, P., Skibo, E. B., and Dorr, R. T., Design of cancer-specific antitumor agents based on aziridlinylcyclopent[b]indoloquinones, J. Med. Chem., 2000, 43, 457-466}. Each agent was evaluated at three doses in C57/bl mice: 2, 3 or 5 mg/kg/day, on days 1, 5, and 9 after subcutaneous tumor implantation of 10^5 cells in the front flank on day 0. “Toxic” means that there was early lethality, or ≧50% lethality prior to any deaths in the control group. The treated over control values (T/C) were measured at day 25 of the study. A T/C value <40% is considered active.
In vivo Evaluation. The B-16 melanoma in C57/bl mice syngraft model was employed to determine in vivo activity. {Griswold, D. P., Consideration of the Subcutaneously Implanted B16 Melanoma as a Screening Model for Potential Anticancer Agents, Cancer Chemother Reports, 1972, 3, 315-324}. Each agent was evaluated at three doses: 2, 3 or 5 mg/kg/day, on days 1, 5, and 9 after subcutaneous tumor implantation of 10^5 cells in the front flank on day 0. “Toxic” means that there was early lethality, or ≧50% lethality prior to any deaths in the control group. The treated over control values (T/C) were measured at day 25 of the study. A T/C value<40% is considered active. […] The control was obtained with drug-free animals.

Compound | DNA alkylation percentage [1] | melting point | GI50 [2] | CC50 [2] | Log TGI NSC H460 [2] | Average Log LC50 60-Cell Line [3] | In vivo T/C (Treated/Control) ([4]; 5 mg/Kg/Day on days 1, 5, 9) | other results
CC(=O)OC1CCc2c1[nH]c1c2C(=O)C(N2CC2)=CC1=O (stereo not drawn) [Compound 1b, 3-Acetoxy-7-aziridinyl-1,2,3,4-tetrahydrocyclopent[b]indole-5,8-dione] | 34% | 165 °C | – | – | – | – | – | –
CC(=O)OC1CCc2c3c(n(C(C)=O)c21)C(=O)C=C(N1CC1)C3=O (stereo not drawn) [Compound 1c, 7-Aziridinyl-3-acetoxy-4-acetyl-1,2,3,4-tetrahydrocyclopent[b]indole-5,8-dione] | – | 140 °C | – | – | – | – | – | –
CC(=O)OC1CCc2c1[nH]c1c2C(=O)C(N2CC2)=C(C)C1=O (stereo not drawn) [Compound 2b, 3-Acetoxy-7-aziridinyl-6-methyl-1,2,3,4-tetrahydrocyclopent[b]indole-5,8-dione] | 21% | 165 °C | – | – | – | – | – | –
CC(=O)OC1CCc2c3c(n(C(C)=O)c21)C(=O)C(C)=C(N1CC1)C3=O (stereo not drawn) [Compound 2c, 7-Aziridinyl-3-acetoxy-4-acetyl-6-methyl-1,2,3,4-tetrahydrocyclopent[b]indole-5,8-dione] | – | 156 °C | – | – | – | – | – | –
O=C1C(N2CC2)=CC(=O)c2c1[nH]c1c2CCC1O (stereo not drawn) [Compound 3a, 6-Aziridinyl-3-hydroxy-1,2,3,4-tetrahydrocyclopent[b]indole-5,8-dione] | 30% | – | 7.24 nM | 1780 nM | −7.24 | −5.59 ± 1.95 | – | cytostatic/cytotoxic activity versus histological cancer type (in words) [3]: significant cytostatic/cytotoxic activity
CC(=O)OC1CCc2c1[nH]c1c2C(=O)C(C)=C(N2CC2)C1=O (stereo not drawn) [Compound 4b] | 44% | – | 112 nM | 1230 nM | −6.17 | −4.67 ± 1.04 | – | ± value of Average Log LC50 60-Cell Line [3]: ~1
CC(=O)OC1CCc2c3c(n(C(C)=O)c21)C(=O)C(N1CC1)=C(C)C3=O (stereo not drawn) [Compound 4c] | 9% | – | – | – | – | −4.60 ± 1.12 and −4.49 ± 1.31 | 15% | In vivo T/C (Treated/Control) ([4]; 2 mg/Kg/Day on days 1, 5, 9): 37%; In vivo T/C (Treated/Control) ([4]; 3 mg/Kg/Day on days 1, 5, 9): 15%; in vivo antitumor activity (in words) ([4]; 2, 3 or 5 mg/kg/day): active at all doses; in vivo toxicity (in words) ([4]; 2, 3 or 5 mg/kg/day): without any toxicity
CC1=C(N2CC2)C(=O)c2c(c3c(n2C)C(O)CC3)C1=O (stereo not drawn) [Compound 5a, 6-Aziridinyl-4,7-dimethyl-3-Hydroxy-1,2,3,4-tetrahydrocyclopent[b]indole-5,8-dione] | 0.3% | – | 1260 nM | 50100 nM | −5.12 | – | – | cytostatic and cytotoxic activity (−log) [2]: 5-6; cytostatic/cytotoxic activity versus histological cancer type (in words) [3]: inactive against all histological cancer types; CC50 ([3]; Homo sapiens, 60 cell, read-out: Average Log LC50 60-Cell Line (converted)): ≥ 100000 nM
CC(=O)OC1CCc2c3c(n(C)c21)C(=O)C(N1CC1)=C(C)C3=O (stereo not drawn) [Compound 5b] | – | 157 °C | – | – | – | – | – | –
Cn1c(CO)c(CO)c2c1C(=O)C=C(N1CC1)C2=O [Compound 6b, 5-Aziridinyl-2,3-di(hydroxymethyl)-1-methylindole-4,7-dione] | 3.8% | – | 10 nM | – | −8 | −5.35 ± 2.65 and −5.50 ± 2.5 | Toxic (“Toxic” means ≧ 50% lethality before any control growth deaths) | In vivo T/C (Treated/Control) ([4]; 2 mg/Kg/Day on days 1, 5, 9): Toxic (“Toxic” means ≧ 50% lethality before any control growth deaths); In vivo T/C (Treated/Control) ([4]; 3 mg/Kg/Day on days 1, 5, 9): Toxic (“Toxic” means ≧ 50% lethality before any control growth deaths)
CC1=C(N2CC2)C(=O)c2c([nH]c(CO)c2CO)C1=O [Compound 7a, 5-Aziridinyl-2,3-di(hydroxymethyl)-6-methylindole-4,7-dione] | 2% | – | 10 nM | 1170 nM | −7.49 | −5.54 ± 1.89 | Toxic (“Toxic” means ≧ 50% lethality before any control growth deaths) | cytostatic/cytotoxic activity versus histological cancer type (in words) [3]: significant cytotoxic and cytostatic properties; In vivo T/C (Treated/Control) ([4]; 3 mg/Kg/Day on days 1, 5, 9): Toxic (“Toxic” means ≧ 50% lethality before any control growth deaths); response vs control in vivo at 2 mg/kg ([4]; 2 mg/Kg/Day on days 1, 5, 9): 36%
CC1=C(N2CC2)C(=O)c2c(CO)c(CO)n(C)c2C1=O [Compound 7c, 5-Aziridinyl-2,3-di(hydroxymethyl)-1,6-dimethylindole-4,7-dione] | 0% | 165 °C | – | – | – | – | – | DNA alkylation (in words) [1]: complete loss of DNA alkylation
CC(=O)OCc1[nH]c2c(c1COC(C)=O)C(=O)C(C)=C(N1CC1)C2=O [Compound 8b, 6-Aziridinyl-2,3-di(acetoxymethyl)-5-methylindole-4,7-dione] | 37% | – | 35.5 nM | – | −6.75 and −6.71 | −4.52 ± 1.7 and −4.61 ± 2.5 | Toxic (“Toxic” means ≧ 50% lethality before any control growth deaths) | DNA alkylation (in words) [1]: high DNA alkylation percentages; Log GI50 NSC H460 [2]: −7.63; In vivo T/C (Treated/Control) ([4]; 3 mg/Kg/Day on days 1, 5, 9): Toxic (“Toxic” means ≧ 50% lethality before any control growth deaths); response vs control in vivo at 2 mg/kg ([4]; 2 mg/Kg/Day on days 1, 5, 9): 74%
CC1=C(N2CC2)C(=O)c2c(c(CO)c(CO)n2C)C1=O [Compound 8c, 6-Aziridinyl-2,3-di(hydroxymethyl)-1,5-dimethylindol-4,7-dione] | 0% | – | 38.9 nM | 955 nM | −6.66 | −4.61 ± 1.64 and −4.67 ± 2.48 | Toxic (“Toxic” means ≧ 50% lethality before any control growth deaths) | DNA alkylation (in words) [1]: complete loss of DNA alkylation; Log GI50 NSC H460 [2]: −7.27; Log LC50 NSC H460 ([2]; human): −6.21
O=C1C(N2CC2)=CC(=O)c2c1[nH]c(CO)c2CO [Compound 9a, 6-Aziridinyl-2,3-di(hydroxymethyl)indole-4,7-dione] | 3.4% | – | 138 nM | 11700 nM | −5.94 | −5.07 ± 1.43 | – | –
